For orientation: TGI means the concentration giving total growth inhibition.

Test systems include CAKI-1 renal; COLO 205 colon; DLD-1 colon; EKVX NSCLC; HOP-92 NSCLC; NCI-H23 lung; RXF 393 renal; SK-MEL-28 melanoma; SNB-78 CNS; U251 CNS.
Holding throughout (experiment): DTP human tumour cell line panel, 48 h

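96-well plates; 48 h exposure; 5 concentrations. Endpoints by linear interpolation between flanking doses. Not reached: highest tested concentration assigned. At the TGI there is no net growth.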

`O=c1c(Cl)c(Cl)cnn1CCCl`: the TGI is 6.53 µM with CAKI-1 renal; 7.69 µM with COLO 205 colon; 3.29 µM in the assay with DLD-1 colon; 15.9 µM with EKVX NSCLC; 3.48 µM in the assay with HOP-92 NSCLC; 6.46 µM in the assay on NCI-H23 lung. Moreover, the TGI with RXF 393 renal came out at 4.74 µM; in the assay with SK-MEL-28 melanoma, 4.99 µM; in the assay with SNB-78 CNS it was 30.7 µM; in the assay on U251 CNS it was 12.3 µM.
For `CCOc1ccccc1N=Nc1c(-c2ccccc2)nn(C(=O)CC(=O)Nc2cccc(C)c2)c1-c1ccccc1`, the TGI with CAKI-1 renal, in the assay on COLO 205 colon, in the assay with DLD-1 colon, in the assay with EKVX NSCLC, in the assay with HOP-92 NSCLC and with NCI-H23 lung was greater than 100 µM each time. Further, the TGI in the assay on RXF 393 renal, in the assay with SK-MEL-28 melanoma, in the assay on SNB-78 CNS and in the assay on U251 CNS was greater than 100 µM in each case.
Regarding `N#CC(C(=O)/C(=N\NC(N)=O)C(C#N)c1ccccc1)c1ccccc1` (stereo not given), the TGI in the assay with CAKI-1 renal, in the assay on COLO 205 colon, with DLD-1 colon, in the assay with EKVX NSCLC, with HOP-92 NSCLC and with NCI-H23 lung was greater than 100 µM throughout. The TGI in the assay on RXF 393 renal, in the assay on SK-MEL-28 melanoma, with SNB-78 CNS and with U251 CNS was greater than 100 µM throughout.

The values are drawn from PubChem BioAssay (NCI).
